Reference: patent publication US5328927A, “Hetercyclic compounds, processes for their preparation and pharmaceutical compositions containing them” (Merck Sharpe & Dohme, Ltd., priority 1992, dated 1994)
pIC50: −log10 of the molar value. Where a name gives a salt, the structure may show the parent alone.

Molecular target: human neurokinin-1-receptor (NK1R) (Homo sapiens, UniProt P25103)
Assay: biochemical
Details: 125I-SP binding, cloned human NK1R expressed in COS or CHO, 1 hour at 4° C. or room temperature
Procedure: To express the cloned human neurokinin-1-receptor (NK1R) transiently in COS, the cDNA for the human NK1R was cloned into the expression vector pCDM9 which was derived from pCDM8 (INVITROGEN) by inserting the ampicillin resistance gene (nucleotide 1973 to 2964 from BLUESCRIPT SK+ (trademark, [sequence], La Jolla, Calif., USA)) into the Sac II site. Transfection of 20 ug of the plasmid DNA into 10 million COS cells was achieved by electroporation in 800 μl of transfection buffer (135 mM NaCl, 1.2 mM CaCl2, 1.2 mM MgCl2, 2.4 mM K2 HPO4, 0.6 mM KH2 PO4, 10 mM glucose, 10 mM N-2-hydroxyethyl-piperazine-N'-2-ethane sulphonic acid (HEPES) pH 7.4) at 260 V and 950 μF using the IBI GENEZAPPER (trademark IBI, New Haven, Conn., USA). The cells were incubated in 10% fetal calf serum, 2 mM glutamine, 100 U/ml penicillin-streptomycin, and 90% DMEM media (GIBCO, Grand Island, N.Y., USA) in 5% CO2 at 37° C. for three days before the binding assay.
The binding assay of human NK1R expressed in either COS or CHO cells is based on the use of ^125 I-substance P (^125 I-SP from DU PONT, Boston, Mass.) as a radioactively labeled ligand which competes with unlabeled substance P or any other ligand for binding to the human NK1R. […] In the binding assay, 200 μl of cells were added to a tube containing 20 μl of 1.5 to 2.5 nM of ^125 I-SP and 20 μl of unlabeled substance P or any other test compound. The tubes were incubated at 4° C. or at room temperature for 1 hour with gentle shaking. The bound radioactivity was separated from unbound radioactivity by GF/C filter (BRANDEL, Gaithersburg, Md.) which was pre-wetted with 0.1% polyethylenimine. The filter was washed with 3 ml of wash buffer (50 mM Tris pH 7.5, 5 mM MnCl2, 150 mM NaCl) three times and its radioactivity was determined by gamma counter.

Chain of human neurokinin-1-receptor (NK1R) (P25103 whole entry): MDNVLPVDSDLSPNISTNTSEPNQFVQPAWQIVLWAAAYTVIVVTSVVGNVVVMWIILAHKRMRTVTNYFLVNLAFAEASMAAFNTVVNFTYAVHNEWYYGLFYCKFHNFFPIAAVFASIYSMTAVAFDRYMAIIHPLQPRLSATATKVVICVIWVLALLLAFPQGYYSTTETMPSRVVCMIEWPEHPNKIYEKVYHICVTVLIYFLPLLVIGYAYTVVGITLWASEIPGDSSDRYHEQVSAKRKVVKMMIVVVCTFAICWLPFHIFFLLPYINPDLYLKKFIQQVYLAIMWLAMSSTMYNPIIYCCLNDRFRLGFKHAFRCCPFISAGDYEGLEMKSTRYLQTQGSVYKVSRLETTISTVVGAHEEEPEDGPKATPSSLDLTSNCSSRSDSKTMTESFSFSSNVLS

| pIC50 | IC50 (cell prints μM in nM column) [µM] | Structure (SMILES) |
| --- | --- | --- |
| 6.15 |  | CC(=O)NC(Cc1csc2ccccc12)C(O)C=Cc1cc(C(F)(F)F)cc(C(F)(F)F)c1 (single isomer, unassigned) [2 (Isomer A), 2-Acetamido-1-(3-benzo[b]thienyl)-5-(3,5-bistrifluoromethylphenyl)-4-penten-3-ol] |
| 6.52 |  | CC(=O)NC(Cc1csc2ccccc12)C(O)C=Cc1cc(C(F)(F)F)cc(C(F)(F)F)c1 (single isomer, unassigned) [2 (Isomer B), 2-Acetamido-1-(3-benzo[b]thienyl)-5-(3,5-bistrifluoromethylphenyl)-4-penten-3-ol] |
|  | > 1 | COC(C=Cc1cc(C(F)(F)F)cc(C(F)(F)F)c1)C(Cc1csc2ccccc12)NC(C)=O (single isomer, unassigned) [3 (Isomer A), 2-Acetamido-1-(3-benzo[b]thienyl)-5-(3,5-bistrifluoromethylphenyl)-3-methoxy-4-pentene] |
| 6.46 |  | COC(C=Cc1cc(C(F)(F)F)cc(C(F)(F)F)c1)C(Cc1csc2ccccc12)NC(C)=O (single isomer, unassigned) [3 (Isomer B), 2-Acetamido-1-(3-benzo[b]thienyl)-5-(3,5-bistrifluoromethylphenyl)-3-methoxy-4-pentene] |
| 6.72 |  | CC(=O)NC(Cc1csc2ccccc12)C(O)CCc1cc(C(F)(F)F)cc(C(F)(F)F)c1 (single isomer, unassigned) [5 (Isomer A), 2-Acetamido-1-(3-benzo[b]thienyl)-5-(3,5-bistrifluoromethylphenyl)-3-pentanol] |
| 6.30 |  | CC(=O)NC(Cc1csc2ccccc12)C(O)CCc1cc(C(F)(F)F)cc(C(F)(F)F)c1 (single isomer, unassigned) [5 (Isomer B), 2-Acetamido-1-(3-benzo[b]thienyl)-5-(3,5-bistrifluoromethylphenyl)-3-pentanol] |
| 6.30 |  | COC(CCc1cc(C(F)(F)F)cc(C(F)(F)F)c1)C(Cc1csc2ccccc12)NC(C)=O (single isomer, unassigned) [6 (Isomer A), 2-Acetamido-1-(3-benzo[b]thienyl)-5-(3,5-bistrifluoromethylphenyl)-3-methoxypentane] |
| 7.52 |  | COC(CCc1cc(C(F)(F)F)cc(C(F)(F)F)c1)C(Cc1csc2ccccc12)NC(C)=O (single isomer, unassigned) [6 (Isomer B), 2-Acetamido-1-(3-benzo[b]thienyl)-5-(3,5-bistrifluoromethylphenyl)-3-methoxypentane] |
| 6.70 |  | CC(=O)NC(Cc1csc2ccccc12)C(CCc1cc(C(F)(F)F)cc(C(F)(F)F)c1)=NO (single isomer, unassigned) [14 (Isomer A), 2-Acetamido-1-(3-benzo[b]thienyl)-5-(3,5-bistrifluoromethylphenyl)-3-oximinopentane] |
| 6.52 |  | CC(=O)NC(Cc1csc2ccccc12)C(CCc1cc(C(F)(F)F)cc(C(F)(F)F)c1)=NO (single isomer, unassigned) [14 (Isomer B), 2-Acetamido-1-(3-benzo[b]thienyl)-5-(3,5-bistrifluoromethylphenyl)-3-oximinopentane] |
| 6.46 |  | CC(=O)NC(Cc1csc2ccccc12)C(=O)C=Cc1cc(C(F)(F)F)cc(C(F)(F)F)c1 (stereo not drawn) [Example 1, 2-Acetamido-1-(3-benzo[b]thienyl)-5-(3,5-bistrifluoromethylphenyl)-4-penten-3-one] |
| 7.70 |  | CC(=O)NC(Cc1csc2ccccc12)C(=O)CCc1cc(C(F)(F)F)cc(C(F)(F)F)c1 (stereo not drawn) [Example 4, 2-Acetamido-1-(3-benzo[b]thienyl)-5-(3,5-bistrifluoromethylphenyl)-3-pentanone] |
| 7.52 |  | CN(C)CC(=O)NC(Cc1csc2ccccc12)C(=O)CCc1cc(C(F)(F)F)cc(C(F)(F)F)c1 (stereo not drawn) [Example 9, 1-(3-Benzo[b]thienyl)-5-(3,5-bistrifluoromethylphenyl)-2-(N,N-dimethylglycinamido)-3-pentanone Hydrochloride] |
| 7.40 |  | CC(C)(C)OC(=O)NC(Cc1c[nH]c2ccccc12)C(=O)CCc1cc(C(F)(F)F)cc(C(F)(F)F)c1 (stereo not drawn) [Example 10, 5-(3,5-Bistrifluoromethylphenyl)-2-t-butyloxycarbonylamino-1-(3-indolyl)-3-pentanone] |
| 7.82 |  | NC(Cc1c[nH]c2ccccc12)C(=O)CCc1cc(C(F)(F)F)cc(C(F)(F)F)c1 (stereo not drawn) [Example 11, 2-Amino-5-(3,5-bistrifluoromethylphenyl)-1-(3-indolyl)-3-pentanone Hydrochloride] |
| 7.85 |  | O=C(NC(Cc1c[nH]c2ccccc12)C(=O)CCc1cc(C(F)(F)F)cc(C(F)(F)F)c1)c1ccccc1 (stereo not drawn) [Example 13, 2-Benzamido-5-(3,5-bistrifluoromethylphenyl)-1-(3-indolyl)-3-pentanone] |
| 7.40 |  | CC(=O)NC(Cc1ccc(Cl)c(Cl)c1)C(=O)CCc1cc(C(F)(F)F)cc(C(F)(F)F)c1 (stereo not drawn) [Example 15, 2-Acetamido-5-(3,5-bistrifluoromethylphenyl)-1-(3,4-dichlorophenyl)-3-pentanone] |
| 9.40 |  | CN(C)CCCC(=O)NC(Cc1c[nH]c2ccccc12)C(=O)CCc1cc(C(F)(F)F)cc(C(F)(F)F)c1 (stereo not drawn) [Example 17, 5-(3,5-Bistrifluoromethylphenyl)-2-(4-(N,N-dimethylamino)butyramido)-1-(3-indolyl)-3-pentanone Hydrochloride] |
| 9.22 |  | CN(C)CCCCC(=O)NC(Cc1c[nH]c2ccccc12)C(=O)CCc1cc(C(F)(F)F)cc(C(F)(F)F)c1 (stereo not drawn) [Example 18, 5-(3,5-Bistrifluoromethylphenyl)-2-(5-(N,N-dimethylamino)pentanamido)-1-(3-indolyl)-3-pentanone] |
| 8.70 |  | O=C(NC(Cc1c[nH]c2ccccc12)C(=O)CCc1cc(C(F)(F)F)cc(C(F)(F)F)c1)C1CC1 (stereo not drawn) [Example 19, 5-(3,5-Bistrifluoromethylphenyl)-2-(cyclopropylcarboxamido)-1-(3-indolyl)-3-pentanone] |
| 8.70 |  | CC(CC(=O)NC(Cc1c[nH]c2ccccc12)C(=O)CCc1cc(C(F)(F)F)cc(C(F)(F)F)c1)c1ccccc1 (stereo not drawn) [Example 20, 5-(3,5-Bistrifluoromethylphenyl)-2-(3-phenylbutyramido)-1-(3-indolyl)-3-pentanone] |
